Test results published in US11078207B2, “Substituted pyrrolo[2,3-d]pyrimidines as HER2 inhibitors” (TAIHO PHARMACEUTICAL CO., LTD., priority 2019, dated 2021).

Columns and labels:
HER2 = biological target: T1, HER2 (Homo sapiens, UniProt P04626); test: Inhibitory effect (in vitro) on HER2 phosphorylation activity; assay type: biochemical; settings: recombinant human HER2, ATP 5 μM, 25° C. 30 minutes
T1 construct: purchased Carna Biosciences, Inc
Text: In order to determine conditions for a method of measuring the in vitro inhibitory activity of a compound against HER2 phosphorylation activity, based on the report regarding a HER2 kinase reaction using, as a substrate, a peptide having the same sequence (5-FAM-[…]-CONH2) as that of ProfilerPro Peptide 22 of PerkinElmer (Xie H et al., PLoS One. 2011; 6(7): e21487), ProfilerPro Peptide 22 was used as a substrate. A purified recombinant human HER2 protein used in the present test was purchased from Carna Biosciences, Inc. Upon the measurement of the inhibitory activity of the compound, first, the compound of the present invention was diluted stepwise with dimethyl sulfoxide (DMSO). […] To the reaction solution, EDTA was added to a final concentration of 30 mM, so as to terminate the reaction. Finally, using LabChip (registered trademark) EZ Reader II (PerkinElmer), an unphosphorylated substrate peptide (S) and a phosphorylated peptide (P) were separated and detected according to microchannel capillary electrophoresis.

[1] = biological target: HER2 exon 20 insertion mutant (HER2ex20insYVMA, A775_G776insYVMA) (Homo sapiens, UniProt P04626, DUP772-775); test: Inhibitory action (in vitro) against HER2 exon 20 insertion mutant phosphorylation activity; assay type: biochemical; settings: 30 min pre-incubation, ATP 200 μM, 25° C. 220 minutes
Text: In order to determine conditions for a method of measuring the in vitro inhibitory activity of a compound against HER2 exon 20 insertion mutant phosphorylation activity, as in the case of HER2, ProfilerPro Peptide 22 was used as a substrate. A purified recombinant human HER2 exon 20 insertion mutant (A775_G776insYVMA) protein is shown in SEQ ID NO: 7, and was purchased from SignalChem. Upon the measurement of the inhibitory activity of the compound, first, the compound of the present invention was diluted stepwise with dimethyl sulfoxide (DMSO). Subsequently, the HER2 exon 20 insertion mutant protein and the compound of the present invention in DMSO solution (final concentration of DMSO: 5%) were added into a buffer for the kinase reaction (13.5 mM Tris (pH 7.5), 2 mM dithiothreitol, and 0.009% Tween 20), and the obtained mixture was then pre-incubated at 25° C. for 30 minutes. Thereafter, the substrate peptide (final concentration: 1 μM), manganese chloride (final concentration: 25 mM), magnesium chloride (final concentration: 20 mM), and ATP (final concentration: 200 μM) were added into the reaction mixture, and the thus obtained mixture was then incubated at 25° C. for 220 minutes, so that the kinase reaction was carried out. To the reaction solution, EDTA was added to a final concentration of 30 mM, so as to terminate the reaction. Finally, using LabChip (registered trademark) EZ Reader II (PerkinElmer), an unphosphorylated substrate peptide (S) and a phosphorylated peptide (P) were separated and detected according to microchannel capillary electrophoresis.

SK-BR-3 cells = test: Growth inhibitory activity against HER2 expressing cell line SK-BR-3; assay type: cell-based; settings: Homo sapiens, SK-BR-3, 72 h; 3 days, CellTiter-Glo 2.0
Method: SK-BR-3 cells as a HER2 overexpressing human breast cancer cell line were suspended in a McCoy's 5a medium (manufactured by Life Technologies) supplemented with 10% fetal bovine serum. The cell suspension was seeded in each well of a 384-well flat-bottom microplate, and was then cultured in a 5% carbon dioxide gas-containing culture vessel at 37° C. for 1 day. Thereafter, the compound of the present invention was dissolved in DMSO, and the compound was diluted to 500 times the final concentration in DMSO. The compound in the DMSO solution was diluted with DMSO solution or the medium used in the suspension of the cells, and the obtained solution was then added to each well of the culture plate so that the final concentration of DMSO was 0.2%. The obtained mixture was further cultured in the 5% carbon dioxide gas-containing culture vessel at 37° C. for 3 days. After completion of the culture for 3 days in the presence of the compound, the cells were counted using CellTiter-Glo 2.0 (manufactured by Promega), and the growth inhibition percentage was then calculated according to the following equation. […] Growth inhibitory percentage (%)=(C−T)/(C)×100 T: Emission intensity from the well to which the test compound was added C: Emission intensity from the well to which the test compound was not added

Ba/F3-HER2insYVMA cells = Ba/F3-HER2insYVMA cells (Homo sapiens, UniProt P04626, DUP772-775, cells depend on it); test: Growth inhibitory activity against HER2 exon 20 insertion mutant expressing cell line; assay type: cell-based, mouse; settings: 3 days, CellTiter-Glo 2.0, read-out: HER2ex20insYVMA cell growth inhibitory activity IC50 value
Method: Growth inhibitory activity against the HER2 exon 20 insertion mutant was measured using Ba/F3 cells that were a mouse B lymphocyte precursor cell line, into which a human HER2 exon 20 insertion mutant gene had been introduced. The Ba/F3 cells were maintained in an RPMI-1640 medium (Thermo Fisher Scientific) supplemented with 10% fetal bovine serum (FBS), 100 U/mL penicillin, 100 μg/mL streptomycin (Thermo Fisher Scientific) and 1 ng/mL mouse interleukin-3 (mIL-3) (CST).
Upon evaluation of cell growth inhibitory activity, the Ba/F3-HER2insYVMA cells were suspended in an RPMI-1640 medium supplemented with 10% FBS, 100 U/mL penicillin, and 100 μg/mL streptomycin. The cell suspension was seeded in each well of a 96-well flat-bottom microplate, and was then cultured in a 5% carbon dioxide gas-containing culture vessel at 37° C. for 1 day. The compound of the present invention was dissolved in DMSO, and was then diluted with DMSO or the medium used in the suspension of the cells. The obtained solution was then added to each well of the culture plate, so that the final concentration of DMSO became 0.2%. The obtained mixture was further cultured in the 5% carbon dioxide gas-containing culture vessel at 37° C. for 3 days. After completion of the culture for 3 days in the presence of the compound, the cells were counted using CellTiter-Glo 2.0 (manufactured by Promega), and the growth inhibition percentage was then calculated according to the following equation. […] Growth inhibitory percentage (%)=(C−T)/(C)×100 T: Emission intensity from the well to which the test compound was added C: Emission intensity from the well to which the test compound was not added

[2] = Evaluation of oral absorbability; assay type: in vivo, BALB/cA mice; settings: oral 50 mg/kg/day
Method: The compound of the present invention was suspended or dissolved in 0.5% HPMC aqueous solution and 0.1 N hydrochloric acid, and the obtained suspension or solution was orally administered to BALB/cA mice (CLEA Japan, Inc.) at a dose of 50 mg/kg/day. At 0.5, 1, 2, 4 and 6 hours after completion of the oral administration, blood was collected from the facial vein over time, so as to obtain plasma. The concentration of the compound in the obtained plasma was measured by LC-MS/MS, and the oral absorbability of the present compound was evaluated.

[3] = Evaluation of brain penetration properties; assay type: in vivo, BALB/cA mice; settings: 0.5 hours after oral 50 mg/kg/day

T1 sequence (P04626 23-1255): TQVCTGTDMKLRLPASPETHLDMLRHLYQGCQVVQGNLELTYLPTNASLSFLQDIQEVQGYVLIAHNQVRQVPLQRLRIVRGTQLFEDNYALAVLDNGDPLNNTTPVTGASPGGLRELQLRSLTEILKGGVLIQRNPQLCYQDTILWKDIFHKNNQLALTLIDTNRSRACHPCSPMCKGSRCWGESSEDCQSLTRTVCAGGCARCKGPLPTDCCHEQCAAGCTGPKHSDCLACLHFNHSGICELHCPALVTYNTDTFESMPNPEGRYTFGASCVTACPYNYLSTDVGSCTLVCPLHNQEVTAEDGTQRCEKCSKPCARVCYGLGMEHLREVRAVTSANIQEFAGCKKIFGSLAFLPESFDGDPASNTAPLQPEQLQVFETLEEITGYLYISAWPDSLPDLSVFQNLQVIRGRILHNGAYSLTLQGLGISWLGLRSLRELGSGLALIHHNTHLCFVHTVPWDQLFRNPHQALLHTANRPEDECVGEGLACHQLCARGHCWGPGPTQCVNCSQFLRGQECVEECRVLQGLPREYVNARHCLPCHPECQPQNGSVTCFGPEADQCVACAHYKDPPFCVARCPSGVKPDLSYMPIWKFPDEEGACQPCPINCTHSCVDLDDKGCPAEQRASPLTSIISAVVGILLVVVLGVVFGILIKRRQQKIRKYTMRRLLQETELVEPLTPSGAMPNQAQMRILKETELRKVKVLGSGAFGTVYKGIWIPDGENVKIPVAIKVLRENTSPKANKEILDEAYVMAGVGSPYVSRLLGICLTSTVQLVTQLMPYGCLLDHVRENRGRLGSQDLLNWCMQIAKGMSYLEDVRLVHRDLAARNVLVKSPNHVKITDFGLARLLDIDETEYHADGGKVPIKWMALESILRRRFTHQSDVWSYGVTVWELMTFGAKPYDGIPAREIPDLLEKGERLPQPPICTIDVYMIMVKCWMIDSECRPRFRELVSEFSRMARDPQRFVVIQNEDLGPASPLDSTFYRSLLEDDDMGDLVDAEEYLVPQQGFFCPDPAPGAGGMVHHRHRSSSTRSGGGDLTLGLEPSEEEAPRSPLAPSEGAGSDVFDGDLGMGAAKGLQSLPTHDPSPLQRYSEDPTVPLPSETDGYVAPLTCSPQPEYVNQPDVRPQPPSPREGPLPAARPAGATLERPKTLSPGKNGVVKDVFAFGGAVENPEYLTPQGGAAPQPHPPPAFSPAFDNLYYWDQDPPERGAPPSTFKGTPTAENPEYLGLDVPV
Sequence of Ba/F3-HER2insYVMA cells (P04626 with tags, fused parts or gaps DUP772-775): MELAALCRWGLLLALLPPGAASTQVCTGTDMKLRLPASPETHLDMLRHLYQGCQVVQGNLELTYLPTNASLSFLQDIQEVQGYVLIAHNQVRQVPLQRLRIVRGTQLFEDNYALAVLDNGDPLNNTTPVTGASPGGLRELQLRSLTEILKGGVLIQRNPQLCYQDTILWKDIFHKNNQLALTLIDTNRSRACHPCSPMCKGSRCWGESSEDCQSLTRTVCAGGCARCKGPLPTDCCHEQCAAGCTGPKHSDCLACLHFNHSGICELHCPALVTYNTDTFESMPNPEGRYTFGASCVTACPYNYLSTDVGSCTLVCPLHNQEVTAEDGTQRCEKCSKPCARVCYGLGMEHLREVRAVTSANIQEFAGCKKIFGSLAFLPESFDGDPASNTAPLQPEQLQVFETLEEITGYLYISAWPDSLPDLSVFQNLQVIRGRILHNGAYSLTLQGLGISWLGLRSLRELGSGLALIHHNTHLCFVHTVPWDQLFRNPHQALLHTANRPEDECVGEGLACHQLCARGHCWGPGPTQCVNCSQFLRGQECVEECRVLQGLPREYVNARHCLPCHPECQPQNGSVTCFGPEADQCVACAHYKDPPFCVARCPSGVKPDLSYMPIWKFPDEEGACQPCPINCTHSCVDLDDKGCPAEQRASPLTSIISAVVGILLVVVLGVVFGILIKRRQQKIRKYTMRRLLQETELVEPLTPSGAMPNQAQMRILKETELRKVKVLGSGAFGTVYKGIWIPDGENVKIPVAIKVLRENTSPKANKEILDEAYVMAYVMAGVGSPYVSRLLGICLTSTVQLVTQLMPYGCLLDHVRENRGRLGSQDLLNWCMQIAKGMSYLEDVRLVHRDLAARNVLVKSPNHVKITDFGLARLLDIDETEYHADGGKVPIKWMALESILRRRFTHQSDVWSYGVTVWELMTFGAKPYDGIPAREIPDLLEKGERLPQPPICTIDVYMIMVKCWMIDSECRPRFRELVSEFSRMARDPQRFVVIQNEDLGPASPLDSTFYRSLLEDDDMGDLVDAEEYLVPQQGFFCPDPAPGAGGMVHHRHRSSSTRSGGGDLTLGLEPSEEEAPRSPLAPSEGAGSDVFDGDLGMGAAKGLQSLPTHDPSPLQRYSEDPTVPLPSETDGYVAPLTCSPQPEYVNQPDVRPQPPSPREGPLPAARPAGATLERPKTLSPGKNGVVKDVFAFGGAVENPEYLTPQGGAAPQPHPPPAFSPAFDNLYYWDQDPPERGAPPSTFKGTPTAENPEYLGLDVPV
Sequence of HER2 exon 20 insertion mutant (HER2ex20insYVMA, A775_G776insYVMA) (P04626 with tags, fused parts or gaps DUP772-775): as above

SMILES | IC50 (HER2) [nM] | IC50 [1] [nM] | IC50 (SK-BR-3 cells) [nM] | GI50 (Ba/F3-HER2insYVMA cells) [nM] | AUC(0-t) ([2]; mouse, plasma, BALB/cA mice) [µM·h] | oral absorbability attenuated versus the compound of the present invention ([2]; mice) | brain concentration attenuated versus the compound of the present invention ([3]; mice) | Kp at 0.5 h ([3]; mouse, brain, BALB/cA mice, read-out: Kp value (Compound concentration in brain/plasma)) | concentration at 0.5 h ([3]; mouse, plasma, BALB/cA mice, read-out: Compound concentration in plasma) [nM]
CC#Cc1c(C(=O)Nc2ccc(COC)cc2)c2c(N)ncnc2n1C1(C)CC1 [Comp. Ex. 1, 4-Amino-N-(4-(methoxymethyl)phenyl)-7-(1-methylcyclopropyl)-6-(prop-1-yn-1-yl)-7H-pyrrolo[2,3-d]pyrimidine-5-carboxamide, reference compound] | > 10000 | > 10000 | > 10000 | > 10000 | – | – | – | – | –
C=CC(=O)N1C[C@H](n2nc(C(=O)Nc3ccc(CC(=O)N(C)C)c(C)c3C)c3c(N)ncnc32)C[C@@H]1C [Comp. Ex. 2, 1-((3R,5S)-1-acryloyl-5-methylpyrrolidin-3-yl)-4-amino-N-(4-(2-(dimethylamino)-2-oxoethyl)-2,3-dimethylphenyl)-1H-pyrazolo[3,4-d]pyrimidine-3-carboxamide, reference compound] | 19 | 4.4 | 25 | 1900 | 1.5 | more than 4 times | more than 80 times | 0.005 | 1600
C=CC(=O)N1C[C@H](n2c(C#CC)c(C(=O)NCC3CCCCC3)c3c(N)ncnc32)C[C@@H]1C [Comp. Ex. 3, 7-((3R,5S)-1-acryloyl-5-methylpyrrolidin-3-yl)-4-amino-N-(cyclohexylmethyl)-6-(prop-1-yn-1-yl)-7H-pyrrolo[2,3-d]pyrimidine-5-carboxamide] | 630 | 380 | 4300 | 3400 | – | – | – | – | –
C=CC(=O)N1C[C@H](n2c(C#CC)c(C(=O)NCc3ccccc3C)c3c(N)ncnc32)C[C@@H]1C [Comp. Ex. 4, 7-((3R,5S)-1-acryloyl-5-methylpyrrolidin-3-yl)-4-amino-N-(2-methylbenzyl)-6-(prop-1-yn-1-yl)-7H-pyrrolo[2,3-d]pyrimidine-5-carboxamide] | 54 | 11 | 340 | 900 | – | – | – | – | –

Next, values leading:

IC50 (HER2) [nM] | IC50 [1] [nM] | IC50 (SK-BR-3 cells) [nM] | GI50 (Ba/F3-HER2insYVMA cells) [nM] | AUC(0-t) ([2]; mouse, plasma, BALB/cA mice) [µM·h] | oral absorbability attenuated versus the compound of the present invention ([2]; mice) | brain concentration attenuated versus the compound of the present invention ([3]; mice) | Kp at 0.5 h ([3]; mouse, brain, BALB/cA mice, read-out: Kp value (Compound concentration in brain/plasma)) | concentration at 0.5 h ([3]; mouse, plasma, BALB/cA mice, read-out: Compound concentration in plasma) [nM] | SMILES
130 | 14 | 400 | 1300 | – | – | – | – | – | C=CC(=O)N1C[C@H](n2c(C#CC)c(C(=O)N(C)[C@H](C)c3ccccc3)c3c(N)ncnc32)C[C@@H]1C [Comp. Ex. 5, 7-((3R,5S)-1-acryloyl-5-methylpyrrolidin-3-yl)-4-amino-N-methyl-N—((R)-1-phenylethyl)-6-(prop-1-yn-1-yl)-7H-pyrrolo[2,3-d]pyrimidine-5-carboxamide]
390 | > 10000 | 3000 | 4100 | – | – | – | – | – | CC#Cc1c(C(=O)N[C@H](C)c2ccccc2)c2c(N)ncnc2n1[C@@H]1C[C@H](C)N(C(=O)/C=C/C)C1 [Comp. Ex. 6, 4-Amino-7-((3R,5S)-1-((E)-but-2-enoyl)-5-methylpyrrolidin-3-yl)-N—((R)-1-phenylethyl)-6-(prop-1-yn-1-yl)-7H-pyrrolo[2,3-d]pyrimidine-5-carboxamide]
